From patent US8513248B2, “5,6,7,8-tetrahydroimidazo[1,2-A]pyrazine derivatives as P2X7 modulators” (Glaxo Group Limited, priority 2009, dated 2013)
Where a name gives a salt, the structure may show the parent alone.

Target: T1, human recombinant P2X7 receptors (Homo sapiens, UniProt Q99572)
T1 construct: expressed in transfected cells
T1 sequence (Q99572 1-595): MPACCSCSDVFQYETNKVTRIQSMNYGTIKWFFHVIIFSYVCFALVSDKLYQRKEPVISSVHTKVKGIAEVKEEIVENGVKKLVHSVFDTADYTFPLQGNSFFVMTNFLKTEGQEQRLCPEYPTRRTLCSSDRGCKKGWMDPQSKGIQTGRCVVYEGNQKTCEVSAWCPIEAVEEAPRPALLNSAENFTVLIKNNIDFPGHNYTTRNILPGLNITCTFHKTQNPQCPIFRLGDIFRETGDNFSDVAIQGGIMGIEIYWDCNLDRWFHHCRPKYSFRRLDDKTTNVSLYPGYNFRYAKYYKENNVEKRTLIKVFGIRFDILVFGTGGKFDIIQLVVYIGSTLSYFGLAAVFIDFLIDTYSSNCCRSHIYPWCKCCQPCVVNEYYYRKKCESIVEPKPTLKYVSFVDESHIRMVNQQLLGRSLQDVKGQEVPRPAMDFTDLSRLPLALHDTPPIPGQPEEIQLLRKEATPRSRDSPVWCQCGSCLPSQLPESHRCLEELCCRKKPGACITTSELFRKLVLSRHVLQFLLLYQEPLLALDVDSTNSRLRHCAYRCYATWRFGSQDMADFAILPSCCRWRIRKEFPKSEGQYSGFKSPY
Experiment: Ethidium Accumulation Assay 1
Format: cell-based
Details: HEK293 cells stably expressing human recombinant P2X7; 1 mM ATP; ethidium 100 μM; read-out: Assay 1 (antagonist pIC50 for blocking ATP responses, ethidium accumulation) (converted)
Protocol: Studies were performed using NaCl assay buffer of the following composition: 140 mM NaCl, 10 mM HEPES [4-(2-hydroxyethyl)-1-piperazine-1-ethanesulfonic acid], 5 mM N-methyl-D-glucamine, 5.6 mM KCl, 10 mM D-glucose, 0.5 mM CaCl2 (pH 7.4).
Human Embryonic Kidney (HEK) 293 cells, stably expressing human recombinant P2X7 receptors, were grown in poly-D-lysine pretreated 96 well plates for 18-24 hours. […] The cells were washed twice with 350 μl of the assay buffer, before addition of 50 μl of the assay buffer containing the putative P2X7 receptor antagonist compound. (A small amount of dimethyl sulfoxide, for initially dissolving the compound, is optionally used and present in this […] test compound sample.) The cells were then incubated at room temperature (19-21° C.) for 30 min before addition of ATP and ethidium (100 μM final assay concentration). The ATP concentration was chosen to be close to the EC80 for the receptor type and was 1 mM for studies on the human P2X7 receptor. Incubations were continued for 8 or 16 min and were terminated by addition of 25 μl of 1.3M sucrose containing 4 mM of the P2X7 receptor antagonist Reactive Black 5 (Aldrich). […] Antagonist pIC50 values for blocking ATP responses were determined using iterative curve fitting techniques.

Row | IC50 | SMILES
1 | < 10 nM | O=C(c1cccc(C(F)(F)F)c1Cl)N1CCn2c(Br)cnc2C1 [Example 18, 3-Bromo-7-{[2-chloro-3-(trifluoromethyl)phenyl]carbonyl}-5,6,7,8-tetrahydroimidazo[1,2-a]pyrazine hydrochloride]
2 | < 10 nM | O=C(c1cccc(C(F)(F)F)c1Cl)N1CCn2c(nc(C(F)(F)F)c2Br)C1 [Example 19, 3-Bromo-7-{[2-chloro-3-(trifluoromethyl)phenyl]carbonyl}-2-(trifluoromethyl)-5,6,7,8-tetrahydroimidazo[1,2-a]pyrazine]
3 | < 10 nM | O=C(c1cccc(C(F)(F)F)c1Cl)N1CCn2c(nc(I)c2I)C1 [Example 20, 7-{[2-chloro-3-(trifluoromethyl)phenyl]carbonyl}-2,3-diiodo-5,6,7,8-tetrahydroimidazo[1,2-a]pyrazine]
4 | < 10 nM | O=C(c1cccc(C(F)(F)F)c1Cl)N1CCn2c(I)cnc2C1 [Example 21, 7-{[2-chloro-3-(trifluoromethyl)phenyl]carbonyl}-3-iodo-5,6,7,8-tetrahydroimidazo[1,2-a]pyrazine]
5 | < 100 nM | O=C(c1cccc(C(F)(F)F)c1Cl)N1CCn2c(-c3ccc(F)cc3)cnc2C1 [Example 22, 7-{[2-Chloro-3-(trifluoromethyl)phenyl]carbonyl}-3-(4-fluorophenyl)-5,6,7,8-tetrahydroimidazo[1,2-a]pyrazine hydrochloride]
6 | < 10 nM | O=C(c1cccc(C(F)(F)F)c1Cl)N1CCn2c(-c3cccnc3)cnc2C1 [Example 23, a hydrochloride salt (n•HCl) of 7-{[2-chloro-3-(trifluoromethyl)phenyl]carbonyl}-3-(3-pyridinyl)-5,6,7,8-tetrahydroimidazo[1,2-a]pyrazine]
7 | < 1000 nM | O=C(c1cccc(C(F)(F)F)c1Cl)N1CCn2c(-c3cccc(C(F)(F)F)c3Cl)cnc2C1 [Example 24, 3-[2-chloro-3-(trifluoromethyl)phenyl]-7-{[2-chloro-3-(trifluoromethyl)phenyl]carbonyl}-5,6,7,8-tetrahydroimidazo[1,2-a]pyrazine hydrochloride]
8 | < 501 nM | O=C(c1cccc(C(F)(F)F)c1Cl)N1CCn2c(-c3ccc(Cl)cc3)cnc2C1 [Example 25, 3-(4-chlorophenyl)-7-{[2-chloro-3-(trifluoromethyl)phenyl]carbonyl}-5,6,7,8-tetrahydroimidazo[1,2-a]pyrazine hydrochloride]
9 | < 100 nM | O=C(c1cccc(C(F)(F)F)c1Cl)N1CCn2c(nc(C(F)(F)F)c2-c2ccccc2)C1 [Example 26, 7-{[2-Chloro-3-(trifluoromethyl)phenyl]carbonyl}-3-phenyl-2-(trifluoromethyl)-5,6,7,8-tetrahydroimidazo[1,2-a]pyrazine]
10 | < 100 nM | Cc1ccccc1-c1cnc2n1CCN(C(=O)c1cccc(C(F)(F)F)c1Cl)C2 [Example 28, 7-{[2-Chloro-3-(trifluoromethyl)phenyl]carbonyl}-3-(2-methylphenyl)-5,6,7,8-tetrahydroimidazo[1,2-a]pyrazine hydrochloride]
11 | < 100 nM | O=C(c1ccc(Cl)cc1Cl)N1CCn2c(nc(Cl)c2Cl)C1 [Example 29, 2,3-dichloro-7-[(2,4-dichlorophenyl)carbonyl]-5,6,7,8-tetrahydroimidazo[1,2-a]pyrazine]
12 | < 501 nM | O=C(c1ccc(F)cc1Cl)N1CCn2c(Br)cnc2C1 [Example 30, 3-Bromo-7-[(2-chloro-4-fluorophenyl)carbonyl]-5,6,7,8-tetrahydroimidazo[1,2-a]pyrazine]
13 | < 10 nM | O=C(c1cccc(C(F)(F)F)c1Cl)N1CCn2c(-c3ccc(F)cn3)cnc2C1 [Example 31, 7-{[2-Chloro-3-(trifluoromethyl)phenyl]carbonyl}-3-(5-fluoro-2-pyridinyl)-5,6,7,8-tetrahydroimidazo[1,2-a]pyrazine]
14 | < 100 nM | O=C(c1ccc(F)cc1Cl)N1CCn2c(nc(C(F)(F)F)c2Br)C1 [Example 32, 3-Bromo-7-[(2-chloro-4-fluorophenyl)carbonyl]-2-(trifluoromethyl)-5,6,7,8-tetrahydroimidazo[1,2-a]pyrazine]
15 | < 10 nM | O=C(c1cccc(C(F)(F)F)c1Cl)N1CCn2c(nc(Cl)c2Br)C1 [Example 33, 3-Bromo-2-chloro-7-{[2-chloro-3-(trifluoromethyl)phenyl]carbonyl}-5,6,7,8-tetrahydroimidazo[1,2-a]pyrazine]
16 | < 100 nM | O=C(c1cccc(C(F)(F)F)c1Cl)N1CCn2c(nc(Br)c2-c2ccc(F)cc2)C1 [Example 34, 2-Bromo-7-{[2-chloro-3-(trifluoromethyl)phenyl]carbonyl}-3-(4-fluorophenyl)-5,6,7,8-tetrahydroimidazo[1,2-a]pyrazine]
17 | < 100 nM | O=C(c1cccc(C(F)(F)F)c1Cl)N1CCn2c(nc(C(F)(F)F)c2-c2ccc(F)cc2)C1 [Example 35, 7-{[2-chloro-3-(trifluoromethyl)phenyl]carbonyl}-3-(4-fluorophenyl)-2-(trifluoromethyl)-5,6,7,8-tetrahydroimidazo[1,2-a]pyrazine]
18 | < 501 nM | O=C(c1ccc(Cl)cc1Cl)N1CCn2c(nc(C(F)(F)F)c2-c2ccc(F)cc2)C1 [Example 36, 7-[(2,4-dichlorophenyl)carbonyl]-3-(4-fluorophenyl)-2-(trifluoromethyl)-5,6,7,8-tetrahydroimidazo[1,2-a]pyrazine]
19 | < 10 nM | O=C(c1ccc(F)cc1Cl)N1CCn2c(-c3cnccn3)cnc2C1 [Example 37, 7-[(2-chloro-4-fluorophenyl)carbonyl]-3-(2-pyrazinyl)-5,6,7,8-tetrahydroimidazo[1,2-a]pyrazine]
20 | < 10 nM | O=C(c1cccc(C(F)(F)F)c1Cl)N1CCn2c(-c3cnccn3)cnc2C1 [Example 38, 7-{[2-chloro-3-(trifluoromethyl)phenyl]carbonyl}-3-(2-pyrazinyl)-5,6,7,8-tetrahydroimidazo[1,2-a]pyrazine]
21 | < 10 nM | O=C(c1cccc(C(F)(F)F)c1Cl)N1CCn2c(-c3nccs3)cnc2C1 [Example 39, 7-{[2-chloro-3-(trifluoromethyl)phenyl]carbonyl}-3-(1,3-thiazol-2-yl)-5,6,7,8-tetrahydroimidazo[1,2-a]pyrazine]
22 | < 10 nM | O=C(c1cccc(C(F)(F)F)c1Cl)N1CCn2c(-c3ncccn3)cnc2C1 [Example 41, 7-{[2-chloro-3-(trifluoromethyl)phenyl]carbonyl}-3-(2-pyrimidinyl)-5,6,7,8-tetrahydroimidazo[1,2-a]pyrazine]
23 | < 10 nM | O=C(c1cccc(C(F)(F)F)c1Cl)N1CCn2c(-c3cscn3)cnc2C1 [Example 42, 7-{[2-chloro-3-(trifluoromethyl)phenyl]carbonyl}-3-(1,3-thiazol-4-yl)-5,6,7,8-tetrahydroimidazo[1,2-a]pyrazine]
24 | < 100 nM | O=C(c1cccc(C(F)(F)F)c1Cl)N1CCn2c(Cl)cnc2C1 [Example 43, 3-chloro-7-{[2-chloro-3-(trifluoromethyl)phenyl]carbonyl}-5,6,7,8-tetrahydroimidazo[1,2-a]pyrazine]
25 | < 501 nM | O=C(c1ccc(Cl)cc1Cl)N1CCn2c(Cl)cnc2C1 [Example 44, 3-chloro-7-[(2,4-dichlorophenyl)carbonyl]-5,6,7,8-tetrahydroimidazo[1,2-a]pyrazine]
26 | < 10 nM | O=C(c1cccc(C(F)(F)F)c1Cl)N1CCn2c(nc(Cl)c2Cl)C1 [Example 45, 2,3-dichloro-7-{[2-chloro-3-(trifluoromethyl)phenyl]carbonyl}-5,6,7,8-tetrahydroimidazo[1,2-a]pyrazine]
